The source of these data is the Deep4Chem optical property database.

A short description of this data set: solvent given as SMILES.

With `CCCC1=Cc2nc1ccc1[nH]c(cc1CCC)c1nc(c(N)cc3[nH]c2cc3CCC)C(CCC)=C1`, where the note is “in Cc1ccccc1”, the absorption maximum amounted to 710 nm.
Turning to `COC(=O)CCC(NC(=O)CCNc1cccc2ccccc12)C(=O)OC` (configuration not stated), the absorption maximum (in CCO) is 330 nm.
On to `N#Cc1ccc(C#Cc2ccc(C#Cc3ccccc3C#N)cc2C#N)cc1`, for which, under “in ClC(Cl)Cl”, the absorption maximum was determined as 340 nm.
In the case of `c1cc2cccc3c4cccc5cccc(c(c1)c23)c54`, the absorption maximum runs as follows: (in C1CCCCC1) 435 nm; (in ClC(Cl)Cl) 438.5 nm; (in ClCCl) 438 nm.
In the case of `COc1cc(OC)cc(C2=C3C(C)=C(I)C(C)=[N+]3[B-](F)(F)n3c(C)c(I)c(C)c32)c1`, the absorption maximum (in CS(C)=O) was found to be 538 nm.
On to `O=c1c(Nc2ccccc2)c([O-])c1=[NH+]c1ccccc1`, for which the absorption maximum is given as 401 nm (in C1CCOC1); 390 nm (in CC#N); 398 nm (in CC(C)=O); 393 nm (in CCO); 400 nm (in CCOCC); 393 nm (in CN1CCCC1=O). The absorption maximum by setting is: (in CN(C)C=O) 393 nm; (in CO) 390 nm; (in CS(C)=O) 378 nm; (in O) 374 nm.
Consider `CCCSC1=[N+]2C(=C(c3ccccc3)c3ccc(SCCC)n3[B-]2(F)F)C=C1SC#N`, for which the absorption maximum runs as follows: (in CC#N) 536 nm; (in CCCCCC) 556 nm; (in CCOC(C)=O) 545 nm; (in CO) 536 nm; (in ClCCl) 545 nm.
In the case of `CN1CCCc2cc(C3=Cc4cccc[n+]4[B-](F)(F)O3)ccc21`, the absorption maximum (in ClC(Cl)Cl) worked out at 438 nm.
Consider `COc1ccc(-c2cnc(C#Cc3ccccc3)o2)cc1OC`, for which, under “in ClCCl”, the absorption maximum turned out to be 330 nm.
Still for that read-out and setting: as for `CCCCN1C(=O)c2cc(Oc3ccc(C(C)(C)C)cc3)c3c4c(Oc5ccc(C(C)(C)C)cc5)cc5c(=O)[nH]/c(=C\c6ccccn6)c6cc(Oc7ccc(C(C)(C)C)cc7)c(c7c(Oc8ccc(C(C)(C)C)cc8)cc(c2c37)C1=O)c4c56`, the figure is 615 nm.
For the setting “in CC#N”, `COc1ccc(C#Cc2ccc3ccc(=O)oc3c2)cc1` came in with an absorption maximum of 308 nm.
Take `CC1=NN(c2cccc3ccccc23)[B-](F)(F)[n+]2ccccc21`: under “in ClCCl”, the absorption maximum amounted to 432 nm.
Consider `N#Cc1c(N2CCCCC2)cc(-c2ccc(-c3ccccc3)s2)c2c1CCc1ccccc1-2`, for which, for the setting “in C1CCOC1”, the absorption maximum is 345 nm.
`O=[N+]([O-])c1cccc2c1ccc1[n+]2[B-](F)(F)n2c-1cc1c3ccccc3c3ccccc3c12`: under “in ClCCl”, the absorption maximum is 518 nm.
For `Cc1cc(O)c(C(=O)/C=C/c2ccccc2)c(=O)o1`, the absorption maximum reads like this: (in CC#N) 356 nm; (in ClCCl) 358 nm.
On to `CC(=O)N(Cc1ccccn1)c1c2ccccc2c2c3c(cccc13)C(=O)N(Cc1ccccn1)C2=O`, for which the absorption maximum by setting is: (in C1CCOC1) 436 nm; (in CCCCCC) 432 nm; (in CCO) 437 nm; (in Cc1ccccc1) 437 nm; (in ClCCl) 439 nm.
Regarding `COc1ccc(-c2cnc(/C=C/c3ccc(OC)c(OC)c3)o2)cc1`, where the note is “in ClCCl”, the absorption maximum is given as 360 nm.
Regarding `O=c1oc2cc3ccccc3cc2nc1-c1ccccc1`, the absorption maximum by setting is: (in CC#N) 348 nm; (in CCCCCC) 350 nm; (in CO) 346 nm; (in c1ccccc1) 356 nm.
For the compound `COc1ccc(C#Cc2ccc(C#N)cc2)cc1OC`, the absorption maximum by setting is: (in C1COCCO1) 326 nm; (in CC#N) 325 nm; (in CCCCCC) 343 nm; (in CCCCCCC) 344 nm; (in CCCO) 329 nm; (in CCOC(C)=O) 326 nm. For the same compound, the absorption maximum amounted to 334 nm (in CS(C)=O), 329 nm (in ClC(Cl)Cl) and 331 nm (in ClCCl).
Consider `CC(C)Nc1cc2sc3cc(NC(C)C)c(F)cc3c(=O)c2cc1F`, for which the absorption maximum (in CCO) was 377 nm.
For `CCCn1c(-c2cc(-c3nc4ccccc4n3CCC)cc(-c3nc4ccccc4n3CCC)c2)nc2ccccc21`, the absorption maximum (in CS(C)=O) was 301.5 nm.
Turning to `COc1ccc(C(=Cc2ccc(C=O)cc2)c2ccc(OC)cc2)cc1`, the absorption maximum (in C1CCOC1) is reported as 356 nm.
Regarding `COC1(OC)C2(Cl)c3nc4cc(-c5cccs5)ccc4nc3C1(Cl)C1C[C@H]3[C@@H](CC12)C1(Cl)c2nc4cc(-c5cccs5)ccc4nc2C3(Cl)C1(OC)OC` (some centres not stated), the absorption maximum (in CC#N) turned out to be 366 nm; the absorption maximum (in CCCCCC) came to 358 nm; the absorption maximum (in CCOC(C)=O) is 362 nm; the absorption maximum (in CO) worked out at 369 nm; the absorption maximum (in Cc1ccccc1) was 364 nm; the absorption maximum (in ClC(Cl)Cl) was determined as 368 nm. The absorption maximum (in ClCCl) turned out to be 369 nm.
For the compound `COC(=O)/C(C#N)=c1\s/c(=c2/s/c(=C(/C#N)C(=O)OC)c3cc(-c4ccccc4)sc23)c2sc(-c3ccccc3)cc12`, where the note is “in Cc1ccccc1”, the absorption maximum is 605 nm.
Turning to `Cc1cccc(C)c1`, the absorption maximum (in C1CCCCC1) came out at 259.74 nm.
Under “in Cc1ccccc1”, `c1ccc(N(c2ccccc2)c2cc3c4c(c2)N(c2ccccc2)c2cc5c(cc2B4c2ccccc2N3c2ccccc2)B2c3ccccc3N(c3ccccc3)c3cc(N(c4ccccc4)c4ccccc4)cc(c32)N5c2ccccc2)cc1` came in with an absorption maximum of 457 nm.
`COc1ccccc1C1=[N+]2C(=Cc3c4cc5ccccc5cc4c(-c4ccccc4OC)n3[B-]2(F)F)c2cc3ccccc3cc21` registered an absorption maximum (in C1CCOC1) of 738 nm.
For `O=c1c2ccccc2n2c3ccccc3c(=O)c3cccc1c32`, the absorption maximum (in Cc1ccccc1) stood at 432.96 nm.
Regarding `CCCCN1C(=O)c2cc(Oc3ccc(C(C)(C)C)cc3)c3c4c(Oc5ccc(C(C)(C)C)cc5)c(Oc5ccc(C(C)(C)C)cc5)c5c6c(cc(Oc7ccc(C(C)(C)C)cc7)c(c7c(Oc8ccc(C(C)(C)C)cc8)c(Oc8ccc(C(C)(C)C)cc8)c(c2c37)C1=O)c64)C(=O)N(CCCC)C5=O`, the absorption maximum (in ClC(Cl)Cl) amounted to 570 nm.
Take `CN(C)c1ccc(/C=C/c2ccc(-c3nnc(-c4ccc(-c5cc6ccccc6s5)cc4)o3)cc2)cc1`: the absorption maximum reads like this: (in CC#N) 334 nm; (in CC(C)=O) 337 nm; (in CCCCCCCC) 334 nm; (in CCCCCCCCCCO) 344 nm; (in CCCCCCCCO) 343 nm; (in CCCCCO) 341 nm. Moreover, the absorption maximum by setting is: (in CCCO) 341 nm; (in CN(C)C=O) 338 nm; (in CO) 335 nm; (in CS(C)=O) 340 nm.
The compound `O=c1oc2ccc3ccccc3c2nc1-c1ccc(Cl)cc1` returned an absorption maximum (in c1ccccc1) of 404 nm.
The compound `CCN(CC)c1ccc(-c2nc(Oc3ccc(-c4nc5ccc(Cl)cc5o4)cc3)nc(Oc3ccc(-c4nc5ccc(Cl)cc5o4)cc3)n2)cc1` showed an absorption maximum (in CN(C)C=O) of 393 nm.
Regarding `CC(C)(C)c1ccc2c(c1)c1cc(C(C)(C)C)ccc1n2-c1cc(C(=O)c2cccnc2)cc(-n2c3ccc(C(C)(C)C)cc3c3cc(C(C)(C)C)ccc32)c1`, the absorption maximum (in Cc1ccccc1) was 381 nm.
As for `CC(C)(C)OC(=O)COc1ccc2c(c1)oc(=O)c1c(=O)oc3ccccc3c12`, the absorption maximum is, setting by setting: (in CS(C)=O) 366 nm; (in ClCCl) 365 nm.
`O=C1c2ccc(N(c3ccc(-c4ccccc4)cc3)c3ccc(-c4ccccc4)cc3)cc2C(=O)c2ccc(N(c3ccc(-c4ccccc4)cc3)c3ccc(-c4ccccc4)cc3)cc21`: the absorption maximum (in Cc1ccccc1) is 464 nm.
